How the values were obtained:
fascin = fascin (Homo sapiens (Human), UniProt Q16658); experiment: High throughput fascin inhibition assay (actin bundling, F-actin imaging); assay type: biochemical
Protocol: A high throughput assay was developed to screen for fascin specific inhibitors. Purified polymerized F-actin with or without fascin were mixed and incubated to allow actin bundle formation. F-actin polymers were then bound to the poly-D-lysine coated plates. […] Four images were taken from each well and the average fiber length was analyzed for each tested compound.
Recombinant human fascin 1 was expressed as a GST fusion protein in BL21 Escherichia coli. One liter of 2YT medium with ampicillin was inoculated overnight with 3 mL of BL21/DE3 culture transformed with pGEX4T-fascin 1 plasmid and grown at 37° C. until attenuance at 600 nm (D600) reached about 0.8. The culture was then transferred to 18° C. and induced by the addition of 0.1 mM isopropyl β-d-thiogalactoside (IPTG) for 12 h. Bacteria were harvested by centrifugation at 5,000 r.p.m. for 10 min. The pellets were suspended in 30 mL of PBS supplemented with 0.2 mM PMSF, 1 mM DTT, 1% (v/v) Triton X-100 and 1 mM EDTA. After sonication, the suspension was centrifuged at 15,000 r.p.m. for 30 min to remove the cell debris. The supernatant was then incubated for 2 h with 4 mL of glutathione beads (Sigma) at 4° C. After extensive washing with PBS, the beads were resuspended in 10 mL of thrombin cleavage buffer (20 mM Tris-HCl pH 8.0, 150 mM NaCl, 2 mM CaCl2, 1 mM DTT). Fascin was released from the beads by incubation overnight with 40-100 U of thrombin at 4° C. After centrifugation, 0.2 mM PMSF was added to the supernatant to inactivate the remnant thrombin activity. The fascin protein was further concentrated with a Centricon® (Boca Raton, Fla.) filter to about 50 mg/mL.
About 150,000 compounds were screened. […] Purified fascin protein (15 μL of 0.5 μM) in buffer (100 mM KCl, 20 mM Tris/HCl, pH 7.5, 2 mM MgCl2) was added into each well of a clear 384-well flat-bottom plate (Corning) using Thermo Multidrop Combi (Fisher). Compound ([…]) solutions (5 mM stock) from various chemical libraries were pin transferred from stock 384-well plates into the 384-well assay plates and incubated for 30 min. Then 15 μL of 0.5 μM polymerized actin (in 100 mM KCl, 20 mM Tris/HCl, pH 7.5, 2 mM MgCl2, 1 mM DTT, 1 mM ATP) (Cytoskeleton Inc.) was added, resulting in 30 μM final concentration for chemical compounds. […] Mixed solution (25 μL) was then transferred to one well in a black 384-well plate coated with poly-D-lysine, and stained actin bundles or F-actin would stick onto the poly-D-lysine plates. After the plates were thoroughly washed with 1×PBS for 3 times, the plate was imaged using an ImageXpress Micro High Content Screening System (Molecular devices). The images were processed and analyzed using MetaMorph software. The raw image data for each well was background-corrected by subtraction of the median intensities across all wells on the plate. The background-corrected data was used to compute the bundle length for each well. The negative control wells were employed for quality control: multiple DMSO-only control wells (16 wells/plate) were present on each assay plate.

4T1 breast tumor cells [1] = experiment: Tumor metastasis in mouse models (lung metastasis, 6-thioguanine clonogenic assay); assay type: in vivo, Balb/c mice; conditions: 4T1 cells in mammary fat-pad, n=5, P<0.01
Protocol: Lung metastasis was measured by the 6-thioguanine clonogenic assay. […] Results are mean±SD (n=5). *, P<0.01.
Tumor cell migration is essential for tumor metastasis. […] Tumor cells (4T1 breast tumor cells) were injected into the mammary fat-pad of mice. The metastasis of these breast tumor cells from the mammary gland to the lung was monitored by the clonogenic assay.
Balb/c mice were purchased from Charles River. All animal procedures were approved by the Animal Care and Use Committees of the Weill Cornell Medical College and performed in accordance with institutional polices. For xenograft tumor metastasis studies, 5×10^5 4T1 cells were suspended in 100 μL PBS and injected subcutaneously into the mammary glands of 6-8 week old female Balb/c mice. Tumor incidence was monitored for 21 days after injection. Tumor size was measured three times a week, and the volume was calculated using the formula length×width^2×0.5. Compound treatment was initiated 7 days after tumor implantation; animals were administered daily with indicated dose for 2 weeks. On day 28, the mice were sacrificed. Numbers of metastatic 4T1 cells in lungs were determined by the clonogenic assay. […] Data are expressed as mean±S.D. and analyzed by Student's t test with significance defined as p<0.05.

[2] = tested on: MDA-MB-231 breast tumor cells; experiment: Boyden-chamber cell migration assay, MDA-MB-231; assay type: cell-based; conditions: Homo sapiens
Protocol: (§1) Since fascin is critical for tumor cell migration, inhibitors of fascin should block tumor cell migration. Representative compounds were selected from the above-identified fascin inhibitors to test their abilities on inhibition of tumor cell migration (See Table 2). […] The cell lines used are listed below.
(§2) Exemplifying procedure: MDA-MB-231 cells (5×10^4) or 4T1 Cells (1×10^5) suspended in 100 μL starvation medium were added to the upper chamber of an insert (6.5 mm diameter, 8 μm pore size; Becton Dickson), and the insert was placed in a 24-well plate containing 700 μL starvation medium with or without 10% FBS. […] Migration assays were performed for 6 h and cells were fixed with 3.7% formaldehyde. Cells were stained with crystal violet staining solution, and cells on the upper side of the insert were removed with a cotton swab. Three randomly selected fields (×10 objectives) on the lower side of the insert were photographed, and the migrated cells were counted. Migration was expressed as average number of migrated cells in a field.

4T1 breast tumor cells [3] = experiment: Boyden-chamber cell migration assay, 4T1; assay type: cell-based
Protocol: as §1, §2

[4] = tested on: DU145 prostate tumor cells; experiment: Boyden-chamber cell migration assay, DU145; assay type: cell-based; conditions: Homo sapiens, DU-145
Protocol: (§3) Since fascin is critical for tumor cell migration, inhibitors of fascin should block tumor cell migration. Representative compounds were selected from the above-identified fascin inhibitors to test their abilities on inhibition of tumor cell migration (See Table 2). […] Therefore, tumor cells with fascin expression are likely sensitive to these fascin inhibitors. The cell lines used are listed below.
(§4) Exemplifying procedure: MDA-MB-231 cells (5×10^4) or 4T1 Cells (1×10^5) suspended in 100 μL starvation medium were added to the upper chamber of an insert (6.5 mm diameter, 8 μm pore size; Becton Dickson), and the insert was placed in a 24-well plate containing 700 μL starvation medium with or without 10% FBS. When used, inhibitors were added to the lower chamber. Migration assays were performed for 6 h and cells were fixed with 3.7% formaldehyde. Cells were stained with crystal violet staining solution, and cells on the upper side of the insert were removed with a cotton swab. Three randomly selected fields (×10 objectives) on the lower side of the insert were photographed, and the migrated cells were counted. Migration was expressed as average number of migrated cells in a field.

[5] = tested on: PC-3 prostate tumor cells; experiment: Boyden-chamber cell migration assay, PC-3; assay type: cell-based
Protocol: as §3, §4

LLC lung tumor cells = experiment: Boyden-chamber cell migration assay, LLC; assay type: cell-based
Protocol: as §3, §4

[6] = Actin + Fascin + compound at 30 μM

| IC50 (fascin) [µM] | IC50 [2] [µM] | IC50 (4T1 breast tumor cells [3]) [µM] | IC50 [4] [µM] | fiber growth (fascin; 30 μM) | Average fiber length (fascin; [6]) [arbitrary unit] | Average fiber thickness (fascin; [6]) [arbitrary unit] | IC50 [5] [µM] | IC50 (LLC lung tumor cells) [µM] | SMILES | tumor metastasis from mammary gland to lung (4T1 breast tumor cells [1]; 30 mg/kg daily for 2 weeks) | tumor metastasis from mammary gland to lung (4T1 breast tumor cells [1]; 8 mg/kg daily for 2 weeks) |
| --- | --- | --- | --- | --- | --- | --- | --- | --- | --- | --- | --- |
| 0.807 | – | – | – | – | – | – | – | – | COc1ccc(S(=O)(=O)Nc2cc(Sc3nc[nH]n3)c(O)c3ccccc23)cc1 [Compound 10, N-(3-(1H-1,2,4-triazol-3-ylthio)-4-hydroxynaphthalen-1-yl)-4-methoxybenzenesulfonamide] | decreased the tumor metastasis | – |
| 0.5 | 30 | 50 | – | – | – | – | – | – | C/N=c1/nc(-c2ccccc2)n(-c2ccccc2)s1 [Compound 4, (Z)-N-(2,3-diphenyl-1,2,4-thiadiazol-5(2H)-ylidene)methanamine] | – | – |
| 0.652 | 25 | 20 | 25 | inhibited fiber growth | 0.39 | 0.35 | 25 | 25 | O=[N+]([O-])c1ccc(Cl)c(S(=O)(=O)Nc2nc3ccc(Cl)cc3s2)c1 [Compound 3, 2-chloro-N-(6-chlorobenzo[d]thiazol-2-yl)-5-nitrobenzenesulfonamide] | – | decreased the tumor metastasis |

— patent US10208043B2, “Methods for inhibiting fascin” (Novita Pharmaceuticals, Inc., priority 2012, dated 2019)
